In patent US4563446A, “Thromboxane synthetase inhibiting 3-(1-alkenyl) pyridines” (Takeda Chemical Industries, Ltd., priority 1983, dated 1986):

Tests used:
TXA2 synthetase = experiment: Inhibitory effect on blood thromboxane A2 (TXA2) production in rats; type: in vivo, Male Sprague-Dawley rats; conditions: 10 mg/kg oral, 2 hours after administration; serum TXB2 by radioimmunoassay, versus control
Protocol: Male Sprague-Dawley rats aged 7 to 8 weeks were used in groups of 5 individuals. Rats in the dosing group received by oral administration of 2 ml/kg of an aqueous suspension of 10 mg/kg of the test compound prepared with a small amount of gum arabic. To rats in the control group, a suspension of gum arabic only was similarly administered. Two hours after administration, each rat was anesthetized with pentobarbital sodium (50 mg/kg, intraperitoneal) and 1 ml of blood was taken from the abdominal aorta. The blood was allowed to stand at 25° C. for 90 minutes, after which it was centrifuged at 15,000 rpm for 2 minutes to separate the serum. The serum thromboxane B2 (TXB2) which was a stable metabolite of TXA2 produced in the blood during the standing procedure was determined by radioimmunoassay (Shibouta et al., Biochemical Pharmacol. 28, 3601, 1979). The percent inhibition of TXA2 synthetase was calculated from the difference in TXB2 production between the control and dosing groups.

Oral toxicity = type: in vivo; conditions: 1000 mg/kg/day, five rats, 14 days
Excerpt: Moreover, the compounds of the invention are very low in toxicity in rats, dogs and so forth and characterized by broad margin between the toxic dose and the therapeutically effective dose. […] Furthermore, the compounds (I) of the invention produced long-lasting pharmacological effects in vivo, so that their TXA2 synthetase inhibiting activity is expected to be retained stably for a prolonged period of time. Accordingly, the compounds provided by the invention are used in low doses in mammals, including humans, for the prevention or treatment of thrombosis due to TXA2 -induced platelet aggregation, ischemic diseases due to vasospasm in heart, brain, periphery and circulatory system (e.g. myocardial infarction, stroke, renal infarction, pulmonary infarction, infarction at some other site, digestive tract ulcer) and diseases due to imbalance of the ratio of TXA2 /PGI2, with low incidence of adverse effects resulting from long-term continuous use thereof. They are administered orally in the form of tablets, capsules, powders or granules, for instance, or parenterally in the form of injections or pellets. Generally, they are used in a daily oral dose of 20-200 mg per adult human or a daily parenteral dose of 10-100 mg per adult human, respectively in 1-3 divided doses.

Row | SMILES | % inhibition of TXA2 synthetase (TXA2 synthetase) [%] | Deaths (Oral toxicity)
1 | CNC(=O)OCCCCC/C=C(\c1ccccc1)c1cccnc1 [Id-24, 1-methylaminocarbonyloxy-(E)-7-phenyl-7-(3-pyridyl)-6-heptene] | 90 | –
2 | [O-][n+]1cccc(/C(=C/CCCCCO)c2ccccc2)c1 [Ie-7, (E)-7-phenyl-7-(1-oxide-3-pyridyl)-6-hepten-1-ol] | 80 | –
3 | O=[N+]([O-])OCCCCC/C=C(\c1ccccc1)c1cccnc1 [Id-32, 1-nitroxy-(E)-7-phenyl-7-(3-pyridyl)-6-heptene] | 94 | –
4 | Cc1ccc(S(=O)(=O)NC(=O)OCCCCC/C=C(\c2ccccc2)c2cccnc2)cc1 [Id-29, 1-(p-toluenesulfonyl)aminocarbonyloxy-(E)-7-phenyl-7-(3-pyridyl)-6-heptene] | 94 | –
5 | CC(=O)OCCCCC/C=C(\c1ccccc1)c1cccnc1 [Id-19, 1-acetoxy-(E)-7-phenyl-7-(3-pyridyl)-6-heptene] | 94 | –
6 | O=C(Nc1ccccc1)OCCCCC/C=C(\c1ccccc1)c1ccc[n+]([O-])c1 [Ie-8] | 80 | –
7 | COC(=O)CCCC/C=C(\c1ccccc1)c1ccc[n+]([O-])c1 [Ie-6] | 80 | –
8 | NC(=O)CCCC/C=C(\c1ccccc1)c1cccnc1 [Id-43, (E)-7-phenyl-7-(3-pyridyl)-6-heptenamide] | 93 | –
9 | OCCCCC/C=C(\c1ccccc1)c1cccnc1 [Id-14, (E)-7-phenyl-7-(3-pyridyl)-6-hepten-1-ol] | 92 | no rat was dead for 14 days
10 | COCCCCC/C=C(\c1ccccc1)c1cccnc1 [Id-37, (E)-1-methoxy-7-phenyl-7-(3-pyridyl)-6-heptene] | 92 | –
11 | O=C(O)CCCCCCCCC/C=C(\c1ccccc1)c1cccnc1 [Id-9, (E)-12-phenyl-12-(3-pyridyl)-11-dodecenoic acid] | 90 | –
12 | O=C(O)CCCC/C=C(/c1ccccc1)c1ccc[n+]([O-])c1 [Ie-3] | 70 | –
13 | O=C(CCCC/C=C(\c1ccccc1)c1cccnc1)Nc1ccccc1 [Id-44, N-phenylamide of (E)-7-phenyl-7-(3-pyridyl)-6-heptenoic acid] | 94 | –
14 | S=C(Nc1ccccc1)OCCCCC/C=C(\c1ccccc1)c1cccnc1 [Id-28, 1-phenylaminothiocarbonyloxy-(E)-7-phenyl-7-(3-pyridyl)-6-heptene] | 79 | –
15 | CCCCNC(=O)OCCCCC/C=C(\c1ccccc1)c1cccnc1 [Id-25, 1-(n-butyl)aminocarbonyloxy-(E)-7-phenyl-7-(3-pyridyl)-6-heptene] | 83 | –
16 | O=C(O)CCCC/C=C(/c1ccc[n+]([O-])c1)c1cccs1 [Ie-5] | 90 | –
17 | CCCCC/C=C(\c1ccccc1)c1ccc[n+]([O-])c1 [Ie-9] | 68 | –
18 | O=COCCCCC/C=C(\c1ccccc1)c1cccnc1 [Id-20, 1-formyloxy-(E)-7-phenyl-7-(3-pyridyl)-6-heptene] | 87 | –
19 | O=C(Nc1ccccc1)OCCCCC/C=C(\c1ccccc1)c1cccnc1 [Id-27, 1-phenylaminocarbonyloxy-(E)-7-phenyl-7-(3-pyridyl)-6-heptene] | 87 | –
20 | OCCCCC/C=C(\c1cccnc1)c1cccs1 [Id-18] | 72 | –
21 | CC(C)(C)[Si](C)(C)OCCCCC/C=C(\c1ccccc1)c1cccnc1 [Id-48, dimethyl-t-butylsilyl ether of (E)-7-phenyl-7-(3-pyridyl)-6-hepten-1-ol] | 91 | –
22 | OCCCCC/C=C(/c1ccccc1)c1cccnc1 [Id-15] | 87 | –
23 | O=C(O)CCCCCCCCC/C=C(\c1ccccc1)c1ccc[n+]([O-])c1 [Ie-4] | 85 | –
24 | CCCCC/C=C(\c1ccccc1)c1cccnc1 [Id-5, (E)-1-phenyl-1-(3-pyridyl)-1-heptene] | 73 | –
25 | OCCCCC/C=C(\c1cccnc1)c1cccs1 [Id-17, (E)-7-(3-pyridyl)-7-(2-thienyl)-6-hepten-1-ol] | 95 | –
26 | O=C(O)CCCC/C=C(\c1ccccc1)c1ccc[n+]([O-])c1 [Ie-2, (E)-7-phenyl-7-(1-oxide-3-pyridyl)-6-heptenoic acid] | 85 | –
